The values below come from patent US8324248B2, “Piperidine derivatives as NK3 receptor antagonists” (Hoffmann-La Roche Inc., priority 2009, dated 2012).

The conditions of test [1]: phase II trial, cited from earlier work.
The target of test [2] is T1, recombinant human NK3 receptor (Homo sapiens, UniProt P29371).
T1 construct: expressed in transfected cells; host or cells: HEK293 cells (transient expression), membranes
T1 sequence (P29371 1-465): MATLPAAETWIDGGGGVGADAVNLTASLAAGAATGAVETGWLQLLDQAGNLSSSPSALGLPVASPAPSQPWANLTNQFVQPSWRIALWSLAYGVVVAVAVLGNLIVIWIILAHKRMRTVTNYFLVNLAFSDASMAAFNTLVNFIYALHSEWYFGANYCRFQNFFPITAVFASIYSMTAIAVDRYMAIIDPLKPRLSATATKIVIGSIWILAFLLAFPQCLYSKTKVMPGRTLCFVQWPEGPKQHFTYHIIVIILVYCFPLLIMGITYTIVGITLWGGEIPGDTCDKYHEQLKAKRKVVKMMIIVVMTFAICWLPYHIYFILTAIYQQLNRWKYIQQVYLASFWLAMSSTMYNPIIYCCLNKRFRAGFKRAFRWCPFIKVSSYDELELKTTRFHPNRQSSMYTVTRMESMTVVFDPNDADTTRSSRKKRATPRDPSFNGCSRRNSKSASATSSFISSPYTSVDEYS
Briefly: [3H]SR142801 competition binding assay, hNK3 receptor binding. The conditions noted are these: [3H]SR142801 displacement; membranes from HEK293 cells transiently expressing recombinant human NK3 receptor; Ki by Cheng-Prussoff from IC50. As to the method: The compounds were investigated in accordance with the tests given hereinafter. [^3H]SR142801 competition binding assay hNK3 receptor binding experiment were performed using [^3H]SR142801 (Catalog No. TRK1035, specific activity: 74.0 Ci/mmol, Amersham, GE Healthcare UK limited, Buckinghamshire, UK) and membrane isolated from HEK293 cells transiently expressing recombinant human NK3 receptor. After thawing, the membrane homogenates were centrifuged at 48,000×g for 10 min at 4° C., the pellets were resuspended in the 50 mM Tris-HCl, 4 mM MnCl2, 1 μM phosphoramidon, 0.1% BSA binding buffer at pH 7.4 to a final assay concentration of 5 μg protein/well. For inhibition experiments, membranes were incubated with [^3H]SR142801 at a concentration equal to KD value of radioligand and 10 concentrations of the inhibitory compound (0.0003-10 μM) (in a total reaction volume of 500 μl) for 75 min at room temperature (RT). At the end of the incubation, membranes were filtered onto unitfilter (96-well white microplate with bonded GF/C filter preincubated 1 h in 0.3% PEI+0.3% BSA, Packard BioScience, Meriden, Conn.) with a Filtermate 196 harvester (Packard BioScience) and washed 4 times with ice-cold 50 mM Tris-HCl, pH 7.4 buffer. Nonspecific binding was measured in the presence of 10 μM SB222200 for both radioligands. The radioactivity on the filter was counted (5 min) on a Packard Top-count microplate scintillation counter with quenching correction after addition of 45 μl of microscint 40 (Can berra Packard S. A., Zürich, Switzerland) and shaking for 1 h. Inhibition curves were fitted according to the Hill equation: y=100/(1+(x/IC50)^nH), where nH=slope factor using Excel-fit 4 software (Microsoft). IC50 values were derived from the inhibition curve and the affinity constant (Ki) values were calculated using the Cheng-Prussoff equation Ki=IC50/(1+[L]/KD) where [L] is the concentration of radioligand and KD is its dissociation constant at the receptor, derived from the saturation isotherm. All experiments were performed in duplicate and the mean±standard error (SEM) of the individual Ki values was calculated.

pKi: −log10 of the molar value.

As to `CC(=O)N(C)C1(c2ccccc2)CCN(CCC[C@]2(c3ccc(Cl)c(Cl)c3)CCCN(C(=O)c3ccccc3)C2)CC1` [SR 142,801, Osanetant], the “activity on positive symptoms of schizophrenia” value in test [1] (altered behavior, delusion, hallucinations, extreme emotions, excited motor activity, incoherent speech) is given as “active”. For the same molecule, the “activity in the treatment of negative symptoms” value in test [1] (depression, anhedonia, social isolation or memory and attention deficits) was “inactive”.

For the molecule `C[C@H](Oc1ccc(C#N)cn1)[C@H]1CCN(C(=O)c2ccc(-c3ccc(F)cc3)cc2)C[C@@H]1c1ccc(Cl)cc1` [Example 29, 6-{(8)-1-[(3S,4S)-3-(4-Chloro-phenyl)-1-(4′-fluoro-biphenyl-4-carbonyl)-piperidin-4-yl]-ethoxy}-nicotinonitrile], the negative-log Ki (pKi) (in general, −log10 of the Ki, conventionally taken in molar units) in test [2] was 8.11.
